The values below come from ChEMBL document CHEMBL5465560, “Selectivity Literature for EUbOPEN Chemogenomic Library” (2024).

For assay [1], the target named is Tyrosine-protein kinase Lck (Homo sapiens, UniProt P06239). Description: Selectivity interaction (KinomeScan (DiscoverX)) EUB0000595a LCK. The conditions noted are these: at 10 µM.
The target in assay [2] is Ribosomal protein S6 kinase alpha-3 (Homo sapiens, UniProt P51812). Nature of the assay: Selectivity interaction (ActivX KiNativ screen (kinase selectivity in THP-1 cell lysates)) EUB0000639a RPS6KA3. The conditions noted are these: lysate, at 1 µM. In kind it is subcellular.
The target of assay [3] is Serine/threonine-protein kinase Nek7 (Homo sapiens) (UniProt Q8TDX7). Nature of the assay: Selectivity interaction (ActivX KiNativ screen (kinase selectivity in THP-1 cell lysates)) EUB0000639a NEK7. The conditions noted are these: lysate, at 1 µM. The class given is subcellular.
Assay [4] deals with Sphingosine kinase 1 (Homo sapiens) (UniProt Q9NYA1). Particulars: at 1 µM.
For the next assay, the target named is Activated CDC42 kinase 1 (Homo sapiens, UniProt Q07912). Nature of the assay: Selectivity interaction (Ambit KINOMEscan and KiNATiv profiling in Jurkat cells) EUB0000090b TNK2. In kind it is cell-based. Particulars: at 1 µM.
For assay [5], the target named is T1, Serine/threonine-protein kinase BRSK2 (Homo sapiens) (UniProt Q8IWQ3).
T1 sequence (whole entry): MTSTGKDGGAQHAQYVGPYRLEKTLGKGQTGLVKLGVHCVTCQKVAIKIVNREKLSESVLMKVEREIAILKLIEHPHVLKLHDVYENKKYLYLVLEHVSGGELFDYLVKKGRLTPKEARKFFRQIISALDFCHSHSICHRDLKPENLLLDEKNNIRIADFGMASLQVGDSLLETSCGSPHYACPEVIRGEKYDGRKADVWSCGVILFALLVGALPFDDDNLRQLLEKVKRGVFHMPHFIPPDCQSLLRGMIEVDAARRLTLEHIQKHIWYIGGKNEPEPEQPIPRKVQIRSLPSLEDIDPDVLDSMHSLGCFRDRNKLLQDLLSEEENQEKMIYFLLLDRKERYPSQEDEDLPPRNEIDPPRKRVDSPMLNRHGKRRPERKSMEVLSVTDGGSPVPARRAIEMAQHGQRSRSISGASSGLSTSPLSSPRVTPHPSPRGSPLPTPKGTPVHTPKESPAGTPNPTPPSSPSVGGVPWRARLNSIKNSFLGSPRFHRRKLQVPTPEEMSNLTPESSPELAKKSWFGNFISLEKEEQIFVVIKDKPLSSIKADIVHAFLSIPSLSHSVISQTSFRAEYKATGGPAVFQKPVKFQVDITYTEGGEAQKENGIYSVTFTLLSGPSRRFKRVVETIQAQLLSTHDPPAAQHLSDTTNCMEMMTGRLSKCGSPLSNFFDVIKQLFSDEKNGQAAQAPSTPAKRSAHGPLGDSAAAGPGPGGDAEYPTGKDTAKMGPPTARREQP
Description: Selectivity interaction (Ambit KINOMEscan and KiNATiv profiling in Jurkat cells) EUB0000090b BRSK2. In kind it is cell-based. Particulars: at 1 µM.

The target of assay [6] is T2, Serine/threonine-protein kinase BRSK1 (Homo sapiens) (UniProt Q8TDC3).
T2 sequence (whole entry): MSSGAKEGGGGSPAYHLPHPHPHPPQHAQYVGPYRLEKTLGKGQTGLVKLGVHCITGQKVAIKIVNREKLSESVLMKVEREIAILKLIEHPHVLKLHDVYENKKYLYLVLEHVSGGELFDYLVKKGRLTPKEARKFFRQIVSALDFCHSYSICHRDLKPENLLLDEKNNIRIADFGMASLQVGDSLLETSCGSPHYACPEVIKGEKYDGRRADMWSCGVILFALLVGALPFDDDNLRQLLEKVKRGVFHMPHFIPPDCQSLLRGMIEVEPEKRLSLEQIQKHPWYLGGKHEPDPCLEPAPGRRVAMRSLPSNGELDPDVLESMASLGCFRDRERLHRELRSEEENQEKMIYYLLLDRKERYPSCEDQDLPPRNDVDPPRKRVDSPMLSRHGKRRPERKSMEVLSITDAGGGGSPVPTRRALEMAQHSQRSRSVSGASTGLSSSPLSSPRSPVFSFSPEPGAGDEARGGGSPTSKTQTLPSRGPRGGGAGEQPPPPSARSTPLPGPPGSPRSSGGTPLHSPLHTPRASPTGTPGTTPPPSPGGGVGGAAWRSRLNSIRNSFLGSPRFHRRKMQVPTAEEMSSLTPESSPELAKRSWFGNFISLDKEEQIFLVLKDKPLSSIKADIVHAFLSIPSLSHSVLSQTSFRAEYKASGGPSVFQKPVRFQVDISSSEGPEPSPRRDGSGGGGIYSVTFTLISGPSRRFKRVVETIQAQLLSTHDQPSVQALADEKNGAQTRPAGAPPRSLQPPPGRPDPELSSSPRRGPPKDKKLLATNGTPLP
Description: Selectivity interaction (KinomeScan (DiscoverX)) EUB0001049a BRSK1. The conditions noted are these: at 1 µM.

In assay [7] the target is T3, Cyclin-dependent kinase 11A (Homo sapiens) (UniProt Q9UQ88).
T3 sequence (whole entry): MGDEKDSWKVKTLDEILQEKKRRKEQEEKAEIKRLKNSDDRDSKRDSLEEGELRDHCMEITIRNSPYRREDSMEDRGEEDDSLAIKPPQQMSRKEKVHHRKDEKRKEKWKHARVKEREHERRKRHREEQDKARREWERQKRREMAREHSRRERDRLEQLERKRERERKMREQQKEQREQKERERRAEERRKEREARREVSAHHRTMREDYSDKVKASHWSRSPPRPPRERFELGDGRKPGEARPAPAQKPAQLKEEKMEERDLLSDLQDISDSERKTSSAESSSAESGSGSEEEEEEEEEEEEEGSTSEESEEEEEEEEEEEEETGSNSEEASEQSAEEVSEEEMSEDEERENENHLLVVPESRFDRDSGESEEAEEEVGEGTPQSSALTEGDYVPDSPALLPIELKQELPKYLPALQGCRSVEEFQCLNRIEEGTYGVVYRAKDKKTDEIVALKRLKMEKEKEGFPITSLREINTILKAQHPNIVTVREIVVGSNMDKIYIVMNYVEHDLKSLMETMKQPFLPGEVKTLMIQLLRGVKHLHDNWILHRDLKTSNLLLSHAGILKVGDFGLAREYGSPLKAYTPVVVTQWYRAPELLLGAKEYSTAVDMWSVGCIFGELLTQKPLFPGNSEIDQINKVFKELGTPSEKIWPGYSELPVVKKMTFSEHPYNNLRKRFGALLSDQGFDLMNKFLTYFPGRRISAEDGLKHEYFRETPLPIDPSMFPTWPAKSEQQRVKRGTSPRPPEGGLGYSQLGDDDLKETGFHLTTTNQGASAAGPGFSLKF
Nature of the assay: Selectivity interaction (KinomeScan (DiscoverX)) EUB0000655a CDK11A. The conditions noted are these: at 10 µM.

Assay [8] concerns the target Serine/threonine-protein kinase PAK 6 (Homo sapiens) (UniProt Q9NQU5). Nature of the assay: Selectivity interaction (KinomeScan (DiscoverX)) EUB0000229b PAK6. Particulars: at 10 µM.

Chain of Serine/threonine-protein kinase PAK 6 (Homo sapiens) (Q9NQU5 whole entry, looked up): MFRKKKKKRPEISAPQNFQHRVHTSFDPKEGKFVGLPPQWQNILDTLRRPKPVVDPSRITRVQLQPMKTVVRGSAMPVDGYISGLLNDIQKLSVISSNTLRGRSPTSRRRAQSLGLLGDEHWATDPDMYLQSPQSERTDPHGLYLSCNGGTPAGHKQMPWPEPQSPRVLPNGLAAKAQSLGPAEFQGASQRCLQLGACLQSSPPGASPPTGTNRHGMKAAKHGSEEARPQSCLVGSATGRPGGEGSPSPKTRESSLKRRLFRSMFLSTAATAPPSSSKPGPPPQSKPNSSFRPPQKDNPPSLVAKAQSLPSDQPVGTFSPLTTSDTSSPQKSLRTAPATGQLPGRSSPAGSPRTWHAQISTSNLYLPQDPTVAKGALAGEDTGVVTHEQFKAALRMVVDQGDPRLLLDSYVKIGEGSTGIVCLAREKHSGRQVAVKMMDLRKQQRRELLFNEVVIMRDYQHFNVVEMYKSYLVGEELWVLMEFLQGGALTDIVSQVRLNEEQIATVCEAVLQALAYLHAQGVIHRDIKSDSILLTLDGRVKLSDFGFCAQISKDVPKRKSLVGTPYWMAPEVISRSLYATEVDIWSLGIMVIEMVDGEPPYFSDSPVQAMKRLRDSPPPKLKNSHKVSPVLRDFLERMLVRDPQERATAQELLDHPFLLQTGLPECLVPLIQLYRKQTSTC
Chain of Ribosomal protein S6 kinase alpha-3 (P51812 whole entry): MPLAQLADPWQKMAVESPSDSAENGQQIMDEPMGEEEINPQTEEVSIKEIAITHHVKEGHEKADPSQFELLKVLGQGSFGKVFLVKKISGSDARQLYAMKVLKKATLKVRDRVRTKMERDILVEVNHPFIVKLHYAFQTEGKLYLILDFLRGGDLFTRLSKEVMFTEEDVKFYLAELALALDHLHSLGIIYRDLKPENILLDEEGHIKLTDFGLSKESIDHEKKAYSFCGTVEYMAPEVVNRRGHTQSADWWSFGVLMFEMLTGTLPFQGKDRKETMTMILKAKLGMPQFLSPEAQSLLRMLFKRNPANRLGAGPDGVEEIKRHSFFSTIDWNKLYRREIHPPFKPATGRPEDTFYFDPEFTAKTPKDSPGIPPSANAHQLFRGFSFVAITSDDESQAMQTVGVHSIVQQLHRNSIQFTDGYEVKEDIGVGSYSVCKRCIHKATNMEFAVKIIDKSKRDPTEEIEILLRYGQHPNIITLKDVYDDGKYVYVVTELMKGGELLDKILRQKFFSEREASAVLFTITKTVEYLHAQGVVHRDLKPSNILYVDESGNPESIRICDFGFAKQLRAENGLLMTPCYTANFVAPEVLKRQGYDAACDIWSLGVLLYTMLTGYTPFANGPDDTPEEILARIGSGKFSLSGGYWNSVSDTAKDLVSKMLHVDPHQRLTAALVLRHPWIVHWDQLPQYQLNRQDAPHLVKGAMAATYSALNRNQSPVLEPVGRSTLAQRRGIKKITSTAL
Chain of Activated CDC42 kinase 1 (Q07912 whole entry, looked up): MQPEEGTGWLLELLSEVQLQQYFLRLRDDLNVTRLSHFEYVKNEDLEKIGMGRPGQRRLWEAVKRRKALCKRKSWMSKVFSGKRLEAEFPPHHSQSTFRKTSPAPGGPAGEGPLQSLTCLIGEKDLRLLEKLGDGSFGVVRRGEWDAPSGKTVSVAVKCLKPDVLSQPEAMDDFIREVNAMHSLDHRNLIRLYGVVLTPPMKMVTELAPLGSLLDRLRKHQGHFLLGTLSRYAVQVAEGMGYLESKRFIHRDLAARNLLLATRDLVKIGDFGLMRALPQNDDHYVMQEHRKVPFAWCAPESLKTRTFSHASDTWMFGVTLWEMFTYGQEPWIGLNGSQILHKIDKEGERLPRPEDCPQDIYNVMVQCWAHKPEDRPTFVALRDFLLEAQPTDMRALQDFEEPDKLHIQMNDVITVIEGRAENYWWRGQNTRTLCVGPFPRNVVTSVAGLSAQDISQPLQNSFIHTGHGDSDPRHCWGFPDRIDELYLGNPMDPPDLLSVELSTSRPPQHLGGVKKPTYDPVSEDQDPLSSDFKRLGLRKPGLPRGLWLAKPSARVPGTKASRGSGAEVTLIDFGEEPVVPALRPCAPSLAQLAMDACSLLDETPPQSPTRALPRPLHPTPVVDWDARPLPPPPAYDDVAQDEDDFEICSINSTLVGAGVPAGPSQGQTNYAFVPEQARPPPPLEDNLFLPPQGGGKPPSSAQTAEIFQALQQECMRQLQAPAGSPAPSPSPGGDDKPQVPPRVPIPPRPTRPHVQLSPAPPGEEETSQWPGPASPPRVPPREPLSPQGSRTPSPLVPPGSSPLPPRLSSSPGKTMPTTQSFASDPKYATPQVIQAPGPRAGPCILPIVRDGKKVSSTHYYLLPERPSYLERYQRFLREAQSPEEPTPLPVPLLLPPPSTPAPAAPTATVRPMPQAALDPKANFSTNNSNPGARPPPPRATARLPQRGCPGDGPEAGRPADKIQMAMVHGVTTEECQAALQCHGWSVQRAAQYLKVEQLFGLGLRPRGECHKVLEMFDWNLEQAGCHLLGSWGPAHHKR
Chain of Sphingosine kinase 1 (Homo sapiens) (Q9NYA1 whole entry): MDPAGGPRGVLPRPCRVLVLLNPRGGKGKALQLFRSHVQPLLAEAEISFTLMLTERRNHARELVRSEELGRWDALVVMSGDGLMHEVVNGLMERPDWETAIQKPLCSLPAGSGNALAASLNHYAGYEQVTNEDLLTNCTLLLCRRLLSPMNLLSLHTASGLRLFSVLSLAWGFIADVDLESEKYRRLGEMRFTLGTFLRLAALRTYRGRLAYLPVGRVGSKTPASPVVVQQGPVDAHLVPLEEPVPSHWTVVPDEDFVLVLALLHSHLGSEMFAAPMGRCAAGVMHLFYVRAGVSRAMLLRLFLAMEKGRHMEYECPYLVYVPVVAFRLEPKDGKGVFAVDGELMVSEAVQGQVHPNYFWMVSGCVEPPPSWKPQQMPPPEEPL
Chain of Serine/threonine-protein kinase Nek7 (Homo sapiens) (Q8TDX7 whole entry, looked up): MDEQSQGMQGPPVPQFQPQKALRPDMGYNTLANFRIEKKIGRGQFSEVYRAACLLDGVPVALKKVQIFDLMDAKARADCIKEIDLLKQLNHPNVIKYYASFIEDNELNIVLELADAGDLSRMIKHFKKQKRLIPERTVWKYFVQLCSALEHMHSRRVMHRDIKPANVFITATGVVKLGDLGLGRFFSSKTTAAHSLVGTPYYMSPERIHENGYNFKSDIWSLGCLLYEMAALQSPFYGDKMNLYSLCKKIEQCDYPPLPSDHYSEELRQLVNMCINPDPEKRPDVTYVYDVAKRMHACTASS
Chain of Tyrosine-protein kinase Lck (P06239 2-509 limits assumed): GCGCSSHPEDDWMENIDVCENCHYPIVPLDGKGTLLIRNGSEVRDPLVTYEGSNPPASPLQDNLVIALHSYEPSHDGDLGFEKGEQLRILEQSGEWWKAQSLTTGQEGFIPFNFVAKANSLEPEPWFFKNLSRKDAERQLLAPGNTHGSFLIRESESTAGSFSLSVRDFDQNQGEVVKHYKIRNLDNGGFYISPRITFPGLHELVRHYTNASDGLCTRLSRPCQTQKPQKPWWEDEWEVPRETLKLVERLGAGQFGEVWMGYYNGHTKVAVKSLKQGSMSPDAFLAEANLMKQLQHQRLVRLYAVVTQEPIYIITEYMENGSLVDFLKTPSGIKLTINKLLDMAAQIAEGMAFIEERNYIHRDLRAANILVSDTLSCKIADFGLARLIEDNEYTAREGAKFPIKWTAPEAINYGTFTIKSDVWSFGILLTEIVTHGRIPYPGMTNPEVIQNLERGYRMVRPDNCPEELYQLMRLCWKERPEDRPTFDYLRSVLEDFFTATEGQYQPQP

As for `COCC(=O)NC/C=C/c1ccc2ncnc(Nc3ccc(Oc4ccc(C)nc4)c(C)c3)c2c1` [CP-724714], the % of control in assay [1] worked out at 59%.

As for `CC[C@@H]1[C@H](F)C(=O)N[C@@H]1COc1nccc2cc(C(N)=O)c(OC)cc12` [ZIMLOVISERTIB], the values for the % of inhibition in assay [2] and in assay [3] were -8.2% and 2%, respectively.

With `CN1Cc2nccc(-c3cn(C)nc3-c3ccc(F)cc3)c2C1=O`, in [4], the % of inhibition was -3%.

For the molecule `CN(C)C/C=C/C(=O)Nc1ccc(C(=O)N2CCCC(Nc3ncc(Cl)c(-c4c[nH]c5ccccc45)n3)C2)cc1` (centres undefined), the values for the % of control (at Activated CDC42 kinase 1; in assay [5]) were 99% and 100%, respectively.

For the molecule `COc1cc(Nc2nc(C)cc(-c3cnn4nc(OC)ccc34)n2)cc(C(F)(F)F)c1`, the % of control in [6] was determined as 86%.

For `CN(C)CCOc1ccc(-c2nc(-c3ccncc3)c(-c3ccc4c(c3)CC/C4=N\O)[nH]2)cc1`, the % of control in assay [7] amounted to 86%.

Turning to `COc1cc(N(C)c2ccnc3ccc(C(F)(F)F)cc23)cc(OC)c1OC`, in [8], the % binding was 96%.
